Source: patent US8470765B2, “Polypeptides and antibacterial or antiseptic use of same” (AnGes MG, Inc., priority 2009, dated 2013)
≈ marks a conversion by molar mass, not a printed value. Like-named read-outs stand apart in the source and are kept apart here. No end group written: not given here.

Legend:
[1] = tested on: Pseudomonas aeruginosa 9 (clinical strain); experiment: microbe, parasite or virus in culture; settings: for MIC: Pseudomonas aeruginosa, read-out: MIC Pseudomonas aeruginosa 9
Protocol: (§1) Bacteria (Escherichia coli ATCC 25922, Pseudomonas aeruginosa ATCC 27853, Staphylococcus aureus ATCC29213, Klebsiella pneumoniae JCM 1662, Enterobacter cloacae JCM 1232, Enterobacter aerogenes JCM 1235 and Staphylococcus epidermidis JCM 2414) were inoculated to Mueller-Hinton broth: MHB or LB medium, and cultured at a temperature and period suited for each strain. From the thus obtained colonies, each strain was inoculated to a fresh liquid medium and cultured for 16 to 20 hours. Then an aliquot having a volume (10 to 50 appropriate to each strain was inoculated to a fresh liquid medium and cultured for 4 to 6 hours, followed by the measurement of the absorbance at 600 nm. After comparing the turbidity with McFarland #0.5, the resultant was diluted with a medium. Each strain was added to about 10^5 CFU/mL (final concentration).
(§2) Further, the antibacterial activities against the clinical strains collected and isolated from infected patients were also examined. The tests were carried out for two methicillin-resistant Staphylococcus (MRSA) (MRSA (i) and (ii)), two methicillin-sensitive Staphylococcus (MSSA) (MSSA (i) and (ii)), five Pseudomonas aeruginosa, Pseudomonas aeruginosa 1, Pseudomonas aeruginosa 6, Pseudomonas aeruginosa 8. Pseudomonas aeruginosa 9 and Pseudomonas aeruginosa 12, totally 9 clinical strains. The MRSA and MSSA clinical strains were tested by the same method as Staphylococcus aureus ATCC29213, and Pseudomonas clinical strains were tested by the same method as Pseudomonas aeruginosa ATCC 27853.
(§3) Each of the peptide solutions to be tested was diluted with MHB to obtain a solution of 128 μg/mL. This solution was serially diluted with the medium to prepare peptide-containing media having concentrations of 128, 64, 32, 16, 8.0, 4.0 and 2.0 μg/mL respectively. […] By dilution with sterilized purified water to 1.0 mg/mL, positive control-containing media having concentrations of 16, 8, 4, 2, 1.0, 0.25, 0.12 and 0.06 μg/mL, respectively for TOB; 0.5, 0.12 and 0.06 μg/mL, respectively, for OX; and 16, 8, 4, 2, 1.0, 0.25, 0.12, 0.06, 0.06, 0.03 and 0.008 μg/mL, respectively, for MEPM, were prepared.
(§4) To a 96-well microtiter plate, 0.1 mL of the inoculation solution and 0.1 mL of the peptide- or positive control-containing medium having the respective concentration were added, and cultured at 37° C. for 16 to 24 hours (or a time period suited for the growth of the respective strain). The well not containing the sample was used as a negative control. After the culturing, the growth was visually observed, and the minimum concentration at which the growth was inhibited was defined as the minimum growth inhibition concentration (MIC).
(§5) The medium used in this test for bacteria was Mueller-Hinton broth. Independent experiments were carried out twice or more for each strain.

[2] = tested on: Pseudomonas aeruginosa 12 (clinical strain); experiment: microbe, parasite or virus in culture; settings: for MIC: Pseudomonas aeruginosa, read-out: MIC Pseudomonas aeruginosa 12
Protocol: as §1, §2, §3, §4, §5

[3] = tested on: Pseudomonas aeruginosa 6 (clinical strain); experiment: microbe, parasite or virus in culture; settings: for MIC: Pseudomonas aeruginosa, read-out: MIC Pseudomonas aeruginosa 6
Protocol: as §1, §2, §3, §4, §5

[4] = tested on: Pseudomonas aeruginosa 1 (clinical strain); experiment: microbe, parasite or virus in culture; settings: for MIC: Pseudomonas aeruginosa, read-out: MIC Pseudomonas aeruginosa 1
Protocol: as §1, §2, §3, §4, §5

[5] = tested on: Micrococcus luteus NBRC13867
[6] = tested on: Fusobacterium nucleatum JCM 11025; settings: JCM 11025
[7] = tested on: Candida krusei NBRC1395
[8] = tested on: Bacillus subtilis NBRC3134
[9] = tested on: Salmonella typhimurium JCM1652
[10] = tested on: Actinobacillus actinomycetemcomitans JCM2434
[11] = tested on: Pseudomonas aeruginosa 8 (clinical strain)
Protocol: as §1, §2, §3, §4, §5

[12] = tested on: Alternaria alternata JCM5800; settings: JCM5800
[13] = tested on: Aspergillus niger NBRC 9455
[14] = tested on: Bacteroides fragilis JCM 11019; settings: JCM 11019
[15] = tested on: Acinetobacter baumanni JCM6841
[16] = tested on: Enterobacter cloacae JCM 1232; format: cell-based
Protocol: Bacteria (Escherichia coli ATCC 25922, Pseudomonas aeruginosa ATCC 27853, Staphylococcus aureus ATCC29213, Klebsiella pneumoniae JCM 1662, Enterobacter cloacae JCM 1232, Enterobacter aerogenes JCM 1235 and Staphylococcus epidermidis JCM 2414) were inoculated to Mueller-Hinton broth: MHB or LB medium, and cultured at a temperature and period suited for each strain. From the thus obtained colonies, each strain was inoculated to a fresh liquid medium and cultured for 16 to 20 hours. Then an aliquot having a volume (10 to 50 appropriate to each strain was inoculated to a fresh liquid medium and cultured for 4 to 6 hours, followed by the measurement of the absorbance at 600 nm. After comparing the turbidity with McFarland #0.5, the resultant was diluted with a medium. Each strain was added to about 10^5 CFU/mL (final concentration). Each of the peptide solutions to be tested was diluted with MHB to obtain a solution of 128 μg/mL. […] As controls, tobramycin (TOB: aminoglucoside antibiotic), oxacillin (OX:β-lactam antibiotic), meropenem (MEPM: carbapenem antibiotic) and ciprofloxacin (new quinolone antibiotic) were used. […] To a 96-well microtiter plate, 0.1 mL of the inoculation solution and 0.1 mL of the peptide- or positive control-containing medium having the respective concentration were added, and cultured at 37° C. for 16 to 24 hours (or a time period suited for the growth of the respective strain). The well not containing the sample was used as a negative control. After the culturing, the growth was visually observed, and the minimum concentration at which the growth was inhibited was defined as the minimum growth inhibition concentration (MIC). The medium used in this test for bacteria was Mueller-Hinton broth. Independent experiments were carried out twice or more for each strain.

[17] = tested on: Trichophyton rubrum NBRC9185
[18] = tested on: Rhizopus oryzae NBRC 31005
[19] = Table 4, clinical strain, first/second value where not identical
[20] = Table 4, two tests, first/second value where not identical

| Compound | MIC Pseudomonas aeruginosa 9 [1, 19] | MIC Pseudomonas aeruginosa 12 [2, 19] | MIC Micrococcus luteus [5] [µg/mL] | MIC Fusobacterium nucleatum [6] [µg/mL] | MIC Candida krusei ([7]; NBRC1395) [µg/mL] | MIC Bacillus subtilis ([8]; NBRC3134) [µg/mL] | MIC Actinobacillus actinomycetemcomitans [10] [µg/mL] | MIC Pseudomonas aeruginosa 8 ([11]; 8 (clinical strain)) [µg/mL] | MIC Alternaria alternata [12] [µg/mL] | MIC Aspergillus niger [13, 20] | MIC Bacteroides fragilis [14] [µg/mL] | MIC Acinetobacter baumanni ([15]; JCM6841) [µg/mL] | MIC Enterobacter cloacae [16, 20] | MIC Rhizopus oryzae ([18]; NBRC 31005) [µg/mL] | MIC Pseudomonas aeruginosa 6 [3, 19] | MIC Pseudomonas aeruginosa 1 [4, 19] | MIC Salmonella Typhimurium ([9]; JCM1652) [µg/mL] | MIC Trichophyton rubrum [17, 20] | other results |
| --- | --- | --- | --- | --- | --- | --- | --- | --- | --- | --- | --- | --- | --- | --- | --- | --- | --- | --- | --- |
| C[C@@H](O)[C@H]1C(=O)N2C(C(=O)O)=C(S[C@@H]3CN[C@H](C(=O)N(C)C)C3)[C@H](C)[C@H]12 [meropenem, reference compound] | – | – | – | – | – | – | – | – | – | – | – | – | – | – | – | – | – | – | MIC [1]: < 4000 µg/mL; MIC [2]: < 4000 µg/mL; MIC [3]: 8 to 16 µg/mL (≈ 0.0209 to 0.0417 mM); MIC [4]: < 4000 µg/mL |
| NC[C@H]1O[C@H](O[C@H]2[C@H](O)[C@@H](O[C@H]3O[C@H](CO)[C@@H](O)[C@H](N)[C@H]3O)[C@H](N)C[C@@H]2N)[C@H](N)C[C@@H]1O [tobramycin, reference compound] | – | – | – | – | – | – | – | – | – | – | – | – | – | – | – | – | – | – | MIC [1]: < 4000 µg/mL; MIC [2]: < 4000 µg/mL; MIC [3]: < 4000 µg/mL; MIC [4]: > 16000 µg/mL |
| GRLKRMGERLKRKIQKWIRW-NH2 [SRP-15] | 8/64 | 8/16 | 4 | 4 | 16 | 4 | 32 | 16 | 64 | 8/16 | 16 | 32 | 16/32 | 16 | – | – | – | – | MIC Pseudomonas aeruginosa 6 ([3]; 6 (clinical strain)): 16 µg/mL; MIC Pseudomonas aeruginosa 1 ([4]; 1 (clinical strain)): 16 µg/mL; MIC Salmonella Typhimurium [9, 20]: 8/4; MIC Trichophyton rubrum ([17]; NBRC9185): 64 µg/mL |
| GRLKRMGKRLKRKIQKWARW-NH2 [SRP-14] | 16/32 | 8/16 | 4 | 4 | 32 | 4 | 64 | 16 | 32 | 4/8 | 128 | 64 | 32/128 | 8 | 8/16 | – | – | – | MIC Pseudomonas aeruginosa 1 ([4]; 1 (clinical strain)): 16 µg/mL; MIC Salmonella Typhimurium [9, 20]: 4/8; MIC Trichophyton rubrum ([17]; NBRC9185): 32 µg/mL |
| IFLHRLKRMRKRLKRKLRLW-OH [SRP-7] | 64/128 | – | 2 | 4 | – | 4 | 128 | 32 | 32 | 8/16 | 128 | 128 | 16/128 | – | 16/64 | 32/64 | 4 | 64/32 | MIC Pseudomonas aeruginosa 12 ([2]; 12 (clinical strain)): 16 µg/mL; MIC Candida krusei [7, 20]: 64/32; MIC Rhizopus oryzae [18, 20]: 8/16 |
| KLIFLHRLKRELRKRLKRKLR-NH2 [SRP-13] | – | 8/16 | 2 | 4 | 32 | 4 | 128 | 16 | 64 | – | 64 | – | 32/64 | 8 | 8/16 | 16/32 | 4 | 128/64 | MIC Pseudomonas aeruginosa 9 ([1]; 9 (clinical strain)): 64 µg/mL; MIC Aspergillus niger ([13]; NBRC 9455): 16 µg/mL; MIC Acinetobacter baumanni [15, 20]: 16/32 |
| KLIFLRELRRLRKRLKRKLR-NH2 [SRP-16] | – | 8/16 | 2 | 128 | 32 | – | 128 | 16 | 64 | 8/16 | 32 | 128 | – | – | – | 16/32 | 8 | 64/32 | MIC Pseudomonas aeruginosa 9 ([1]; 9 (clinical strain)): 64 µg/mL; MIC Pseudomonas aeruginosa 6 ([3]; 6 (clinical strain)): 16 µg/mL; MIC Bacillus subtilis [8, 20]: 8/4; MIC Enterobacter cloacae ([16]; JCM 1232): 64 µg/mL; MIC Rhizopus oryzae [18, 20]: 8/16 |
| LIFLHRLKRMRKRLKRKLRL-NH2 [SRP-12] | 16/64 | – | – | – | – | – | – | – | – | 8/16 | – | – | 128< mg/mL | 8 | 32/64 | 16/32 | – | – | MIC Pseudomonas aeruginosa 12 ([2]; 12 (clinical strain)): 16 µg/mL; MIC Pseudomonas aeruginosa 8 [11, 19]: 32/64 |
